This note sets out measurements from ChEMBL document CHEMBL4725338, “Discovery of novel histone lysine methyltransferase G9a/GLP (EHMT2/1) inhibitors: Design, synthesis, and structure-activity relationships of 2,4-diamino-6-methylpyrimidines” (Bioorg Med Chem Lett, 2020).

pIC50: −log10 of the molar value. In brackets after ≈: the same amount, converted by molar mass. Activity calls are given as the source filed them. The calls are words filed in the database; no cut-off is given here.

In data set [1] the target is T1, Histone-lysine N-methyltransferase EHMT2 (Homo sapiens, UniProt Q96KQ7).
T1 sequence (Q96KQ7 whole entry): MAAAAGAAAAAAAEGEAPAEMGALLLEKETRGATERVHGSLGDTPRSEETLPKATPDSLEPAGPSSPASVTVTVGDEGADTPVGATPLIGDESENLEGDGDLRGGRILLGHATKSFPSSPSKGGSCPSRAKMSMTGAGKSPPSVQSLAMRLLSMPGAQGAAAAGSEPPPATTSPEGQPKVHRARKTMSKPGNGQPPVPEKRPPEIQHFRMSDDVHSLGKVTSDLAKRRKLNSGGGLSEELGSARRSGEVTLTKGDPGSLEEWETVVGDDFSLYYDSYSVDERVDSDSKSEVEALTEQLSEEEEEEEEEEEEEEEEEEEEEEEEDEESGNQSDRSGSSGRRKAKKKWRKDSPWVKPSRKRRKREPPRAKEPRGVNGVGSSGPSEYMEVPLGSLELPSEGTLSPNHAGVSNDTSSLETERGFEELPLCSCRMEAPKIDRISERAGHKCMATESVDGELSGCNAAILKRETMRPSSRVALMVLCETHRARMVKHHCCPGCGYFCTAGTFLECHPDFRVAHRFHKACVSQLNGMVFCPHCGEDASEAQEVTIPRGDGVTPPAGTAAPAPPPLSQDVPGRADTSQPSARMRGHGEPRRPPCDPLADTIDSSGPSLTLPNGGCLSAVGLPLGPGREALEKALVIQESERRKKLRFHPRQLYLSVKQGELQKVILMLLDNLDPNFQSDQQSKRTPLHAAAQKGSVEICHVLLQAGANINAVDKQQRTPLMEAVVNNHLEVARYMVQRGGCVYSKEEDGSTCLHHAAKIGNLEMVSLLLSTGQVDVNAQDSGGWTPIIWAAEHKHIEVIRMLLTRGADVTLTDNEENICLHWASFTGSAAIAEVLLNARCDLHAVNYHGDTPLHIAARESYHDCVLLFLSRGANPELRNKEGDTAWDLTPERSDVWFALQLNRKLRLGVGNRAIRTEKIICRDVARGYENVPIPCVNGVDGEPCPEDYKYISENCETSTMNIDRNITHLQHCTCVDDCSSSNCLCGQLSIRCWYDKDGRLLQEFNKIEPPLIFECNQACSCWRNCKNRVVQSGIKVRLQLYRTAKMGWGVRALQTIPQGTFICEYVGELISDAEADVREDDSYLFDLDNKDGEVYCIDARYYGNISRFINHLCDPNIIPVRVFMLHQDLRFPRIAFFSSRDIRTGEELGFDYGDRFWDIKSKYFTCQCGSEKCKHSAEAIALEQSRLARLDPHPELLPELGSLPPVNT
In words: Inhibition G9a (unknown origin).

Data set [2] addresses T2, Histone-lysine N-methyltransferase EHMT1 (Homo sapiens, UniProt Q9H9B1).
T2 sequence (Q9H9B1 whole entry): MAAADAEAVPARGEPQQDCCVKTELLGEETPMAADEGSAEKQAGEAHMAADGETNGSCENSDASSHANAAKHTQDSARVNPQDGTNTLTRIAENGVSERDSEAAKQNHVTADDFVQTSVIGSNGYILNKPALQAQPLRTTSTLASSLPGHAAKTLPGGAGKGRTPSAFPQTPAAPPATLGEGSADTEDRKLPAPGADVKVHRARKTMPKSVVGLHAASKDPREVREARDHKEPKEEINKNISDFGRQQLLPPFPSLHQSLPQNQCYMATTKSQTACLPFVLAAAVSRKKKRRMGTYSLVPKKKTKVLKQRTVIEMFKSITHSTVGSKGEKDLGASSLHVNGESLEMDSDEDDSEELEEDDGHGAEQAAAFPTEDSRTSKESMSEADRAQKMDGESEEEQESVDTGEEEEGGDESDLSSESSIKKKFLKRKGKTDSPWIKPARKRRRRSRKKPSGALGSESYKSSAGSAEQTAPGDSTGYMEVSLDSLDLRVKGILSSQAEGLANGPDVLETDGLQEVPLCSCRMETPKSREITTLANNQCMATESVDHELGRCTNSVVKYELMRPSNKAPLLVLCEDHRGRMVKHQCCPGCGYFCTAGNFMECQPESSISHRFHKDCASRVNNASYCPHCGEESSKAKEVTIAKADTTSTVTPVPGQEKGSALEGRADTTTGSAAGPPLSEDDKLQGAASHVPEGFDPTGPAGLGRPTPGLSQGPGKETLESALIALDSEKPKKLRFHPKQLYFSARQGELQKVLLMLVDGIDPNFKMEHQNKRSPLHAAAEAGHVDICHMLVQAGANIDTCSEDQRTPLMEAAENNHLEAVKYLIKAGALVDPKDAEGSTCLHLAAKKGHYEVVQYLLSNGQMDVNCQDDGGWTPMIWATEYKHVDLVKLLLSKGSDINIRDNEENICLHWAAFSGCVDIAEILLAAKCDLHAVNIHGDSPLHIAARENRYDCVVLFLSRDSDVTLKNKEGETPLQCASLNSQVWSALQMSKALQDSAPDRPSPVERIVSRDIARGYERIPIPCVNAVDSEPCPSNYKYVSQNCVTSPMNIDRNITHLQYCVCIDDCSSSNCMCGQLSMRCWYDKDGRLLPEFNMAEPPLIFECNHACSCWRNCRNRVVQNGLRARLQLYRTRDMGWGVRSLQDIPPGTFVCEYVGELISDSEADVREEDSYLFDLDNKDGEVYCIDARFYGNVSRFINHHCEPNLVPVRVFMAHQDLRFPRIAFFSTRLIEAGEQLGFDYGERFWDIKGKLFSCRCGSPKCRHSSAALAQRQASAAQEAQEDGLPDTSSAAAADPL
In words: Inhibition of GLP (unknown origin).

For data set [3], the system named is CD34-positive (myeloid/lymphoid) cell. The data set can be described thus: Induction of fetal globin in human CD34+ cells assessed as switching of mRAN expression from adult beta-globin to fetal type gamma globin at 0.3 to 1 uM by qRT-PCR analysis. It is filed as functional, cell-based.
The test system is the same in data set [4]. The data set can be described thus: Inhibition of G9a methyltransferase activity in human CD34+ cells assessed as induction of fetal type gamma globin at 1 uM in presence of erythropoietin measured after 21 days by staining based method. The settings on record: time 21.0 day. It is filed as functional.
The nature of data set [5]: Lipophilicity, log D of compound. The settings on record: octanol/water. Type of data set: physicochemical.
Data set [6] in a line: Apparent permeability in MDCK cells. It is filed as ADME, cell-based, Canis lupus familiaris. The settings on record: dog.
A short description of data set [7]: Aqueous solubility of the compound in pH 1.2 JP1 fluid. It is filed as physicochemical.
Data set [8] can be described thus: Aqueous solubility of the compound in pH 6.8 JP2 fluid. Type of data set: physicochemical.
Data set [9] can be described thus: Metabolic stability in mouse liver microsomes assessed as compound remaining at 0.5 mg/mL incubated for 0.5 hrs. The following applies: read-out: Stabilty. It is filed as ADME, Microsome.
Data set [10] can be described thus: Metabolic stability in monkey liver microsomes assessed as compound remaining at 0.5 mg/mL incubated for 0.5 hrs. The settings on record: rhesus monkey, read-out: Stabilty. Type of data set: ADME, Macaca mulatta, Microsome.
Data set [11] is described as follows: Metabolic stability in human liver microsomes assessed as compound remaining at 0.5 mg/mL incubated for 0.5 hrs. Type of data set: ADME, Microsome. The following applies: read-out: Stabilty.
Data set [12] can be described thus: Cmax in mouse at 10 mg/kg, po. Type of data set: ADME, organism-based. Details: route oral, dose 10 mg/kg. The settings on record: in vivo.
Data set [13] has as its target hERG (KCNH2) (Homo sapiens, UniProt Q12809). The data set can be described thus: Inhibition of human ERG at 10 uM relative to control.
Data set [14] concerns the target CYP3A4 (Homo sapiens, UniProt P08684). The data set can be described thus: Mechanism based inhibition of CYP3A4 in human liver microsome assessed as remaining percentage at 100 uM in presence of substrate ACN preincubated 30 mins followed by substrate addition relative to control. Type of data set: ADME. The settings on record: liver microsomes, probe ACN (so in the source), read-out: Activity.

A short description of data set [15]: AUC (0 to infinity) in mouse at 10 mg/kg, po. Type of data set: ADME, organism-based. The settings on record: in vivo. Details: time infinity, route oral, dose 10 mg/kg.
Data set [16] in a line: Tmax in mouse at 10 mg/kg, po. It is filed as ADME, organism-based. The settings on record: in vivo.
Data set [17] is described as follows: Oral bioavailability in mouse at 10 mg/kg. The settings on record: in vivo. It is filed as ADME, organism-based.
A short description of data set [18]: Initial plasma concentration in mouse at 1 mg/kg, iv. Type of data set: ADME, organism-based.
Data set [19] can be described thus: AUC (0 to infinity) in mouse at 1 mg/kg, iv. Details: time infinity, route intravenous, dose 1 mg/kg. It is filed as ADME, organism-based. The settings on record: in vivo.
A short description of data set [20]: Half-life in mouse at 1 mg/kg, iv. It is filed as ADME, organism-based. The settings on record: in vivo.
The nature of data set [21]: Volume of distribution at steady state in mouse at 1 mg/kg, iv. It is filed as ADME, organism-based. The settings on record: in vivo, read-out: Vdss.
A short description of data set [22]: Intrinsic clearance in mouse at 1 mg/kg, iv. Type of data set: ADME, organism-based. The following applies: in vivo.

CYP3A4, sequence (P08684 whole entry): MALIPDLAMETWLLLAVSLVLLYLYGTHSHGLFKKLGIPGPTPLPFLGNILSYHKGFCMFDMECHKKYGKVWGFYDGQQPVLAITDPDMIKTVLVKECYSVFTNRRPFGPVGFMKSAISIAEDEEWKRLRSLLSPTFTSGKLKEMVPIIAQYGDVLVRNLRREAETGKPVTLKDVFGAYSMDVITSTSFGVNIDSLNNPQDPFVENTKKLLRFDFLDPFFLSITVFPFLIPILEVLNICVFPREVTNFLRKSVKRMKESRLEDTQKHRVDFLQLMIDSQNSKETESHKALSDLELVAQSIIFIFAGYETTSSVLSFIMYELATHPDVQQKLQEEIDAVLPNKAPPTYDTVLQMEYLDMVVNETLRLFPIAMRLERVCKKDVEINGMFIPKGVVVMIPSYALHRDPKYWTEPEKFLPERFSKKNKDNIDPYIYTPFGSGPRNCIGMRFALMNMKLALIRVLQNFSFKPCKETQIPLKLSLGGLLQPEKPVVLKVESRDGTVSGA
hERG (KCNH2), sequence (Q12809 whole entry): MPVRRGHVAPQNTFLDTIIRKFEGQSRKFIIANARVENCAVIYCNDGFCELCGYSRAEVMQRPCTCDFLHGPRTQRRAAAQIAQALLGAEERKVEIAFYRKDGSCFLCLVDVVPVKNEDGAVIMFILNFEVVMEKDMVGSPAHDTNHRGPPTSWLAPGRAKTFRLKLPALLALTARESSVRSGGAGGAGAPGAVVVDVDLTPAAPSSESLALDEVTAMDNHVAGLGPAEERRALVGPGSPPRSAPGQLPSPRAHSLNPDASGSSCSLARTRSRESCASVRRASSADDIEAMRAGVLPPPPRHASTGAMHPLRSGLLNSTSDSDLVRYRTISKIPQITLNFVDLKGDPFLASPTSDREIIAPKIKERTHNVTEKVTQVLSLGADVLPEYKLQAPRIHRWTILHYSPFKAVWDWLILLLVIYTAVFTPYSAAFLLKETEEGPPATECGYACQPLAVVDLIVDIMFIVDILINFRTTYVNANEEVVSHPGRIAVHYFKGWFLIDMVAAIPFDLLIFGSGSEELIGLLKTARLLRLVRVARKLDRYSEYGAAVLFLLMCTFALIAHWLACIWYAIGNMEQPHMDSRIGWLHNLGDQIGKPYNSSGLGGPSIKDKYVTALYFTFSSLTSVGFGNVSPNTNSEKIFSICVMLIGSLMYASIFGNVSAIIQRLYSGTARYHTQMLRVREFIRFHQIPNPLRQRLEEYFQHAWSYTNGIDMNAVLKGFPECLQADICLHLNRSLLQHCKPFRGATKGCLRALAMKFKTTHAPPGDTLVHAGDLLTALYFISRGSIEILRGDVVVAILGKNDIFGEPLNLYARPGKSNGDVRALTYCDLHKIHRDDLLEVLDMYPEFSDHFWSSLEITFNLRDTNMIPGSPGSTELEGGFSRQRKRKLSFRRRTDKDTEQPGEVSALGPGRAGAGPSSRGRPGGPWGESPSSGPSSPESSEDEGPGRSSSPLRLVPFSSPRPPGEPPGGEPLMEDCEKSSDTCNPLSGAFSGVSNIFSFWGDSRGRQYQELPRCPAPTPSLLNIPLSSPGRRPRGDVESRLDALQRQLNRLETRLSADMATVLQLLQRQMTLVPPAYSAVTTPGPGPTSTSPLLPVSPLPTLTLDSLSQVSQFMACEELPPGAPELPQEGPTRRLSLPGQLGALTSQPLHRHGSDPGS

Turning to `CNc1cc(C)nc(Nc2ccc(OC)c(C3=CCCN(C)C3)c2)n1`, the figures for the pIC50 in data set [1] and in data set [2] were 6.35 and 6.06, respectively.
On the same counts, the results for `CNc1cc(C)nc(Nc2ccc(OC(F)(F)F)c(C3=CCNCCC3)c2)n1` are 6.07 and 5.42.
For `CNc1cc(C)nc(Nc2ccc(C)c(C3=CCNCCC3)c2)n1` the same measures were 7.85 and 6.96.
Consider `COc1cc2c(cc1OCCCN1CCCC1)N=C(N)C21CCC1`, for which, in data set [3], the Activity result is “Active”.
Regarding `CNc1cc(C)nc(Nc2ccc(OC)c(C3=CCN(C)CC3)c2)n1`, the negative logarithm of the IC50 (pIC50) in [1] is 7.03; in data set [2], 6.56.
For `CNc1cc(C)nc(Nc2ccc(OC(F)F)c(C3=CCNCCC3)c2)n1` the same measures were 8.49 and 7.83.
For `CNc1cc(C)nc(Nc2ccc(OC)c(C3=CCN(CCO)CCC3)c2)n1` the same measures were 6.67 and 5.80.
On the same counts, the results for `CNc1cc(C)nc(Nc2ccc(OC)c(C3=CCNCC3)c2)n1` are 6.65 and 5.94.
As for `CNc1cc(C)nc(Nc2ccc(OC)c(C3=CCCNCC3)c2)n1`, the pIC50 is 7.08 in data set [1] and 6.32 in data set [2].
Turning to `COc1cc2c(NC3CCN(C(C)C)CC3)nc(C3CCCCC3)nc2cc1OCCCN1CCCC1`, the Activity entry in data set [4] is “Active”.
As for `CNc1cc(C)nc(Nc2ccc(OC)c(C3CCN(C)CC3)c2)n1`, in [1], the pIC50 was 6.23.
As for `CNc1cc(C)nc(Nc2ccc(OC)c(C3CCCNCC3)c2)n1` (racemic), the pIC50 was 7.55 in data set [1] and 6.47 in data set [2].
On to `CNc1cc(C)nc(Nc2ccc(OC)c(N3CCN(C)CC3)c2)n1`, for which, in [1], the pIC50 is less than 5.30.
Turning to `CCN1CC=C(c2cc(Nc3nc(C)cc(NC)n3)ccc2OC)CCC1`, the results for the pIC50 in data set [1] and in [2] were 7.98 and 7.36, respectively.
On the same counts, the results for `CNc1cc(C)nc(Nc2ccc(OC)c(C3=CCN(C4CCC4)CCC3)c2)n1` are 6.84 and 5.97.
For `CNc1cc(C)nc(Nc2ccc(OC)c(C3=CCN(C)CCC3)c2)n1`, in data set [2], the pIC50 was 7.13. Besides, the logD in [5] is 1.3. Also, in [6], the Papp turned out to be 8.4 ×10⁻⁶ cm/s. The results for the solubility in data set [7] and in data set [8] were 710 µg/mL (≈ 2010 µM) and 360 µg/mL (≈ 1020 µM), respectively. Besides, the remaining at 0.5 h in data set [9] was determined as 23%; in data set [10], 2%; in data set [11], 76%. The same compound came in with a peak concentration (Cmax) in data set [12] of 210 nM. In addition, the inhibition at 10 µM in data set [13] was 17%. In addition, the activity at 30 min, 100 µM in data set [14] came out at 87.3%. Also, the AUC(0-inf) in data set [15] is 3.14 µM·h; in [19], 1.2 µM·h. In addition, in [16], the Tmax turned out to be 0.63 h. The same compound had a bioavailability in data set [17] of 26%. In [18], this compound displayed a C0 of 220 nM. In data set [20], this compound gave a half-life of 5.6 h. For the same compound, in [21], the Vd is 14.9 L/kg. The CL in data set [22] was determined as 38.7 mL/min/kg.
For the compound `CNc1cc(C)nc(Nc2ccc(OC)c(C3=CCN(C)C3)c2)n1`, the pIC50 was 5.83 in [1] and 5.56 in data set [2].
On the same counts, the results for `CNc1cc(C)nc(Nc2ccc(C#N)c(C3=CCNCCC3)c2)n1` are 7.82 and 7.36.
On the same counts, the results for `CNc1cc(C)nc(Nc2ccc(Cl)c(C3=CCNCCC3)c2)n1` are 8.20 and 7.57.
